In patent publication US11655239B2 (SHANGHAI INSTITUTE OF MATERIAL MEDICA, CHINESE ACADEMY OF …, priority 2019, dated 2023):

Tests used:
[1] = system: lung fibroblast cell line MRC-5; assay: Cytotoxic activity test (MTS), MRC-5; format: cell-based, human; details: 10 μM
Description: Experimental objective: The cytotoxic activity of compound S15 on bronchial epithelial cell line Beas-2B and lung fibroblast cell line MRC-5 was tested.
1) The human bronchial epithelial cell line Beas-2B and the human embryonic lung fibroblast cell line MRC-5 were collected, and inoculated at a certain density (about 5000-10000 cells) on a 96-well plate (the edge wells were filled with sterile water or PBS). A control was set on each plate (100 μL of culture medium was added);
2) The plate was incubated overnight at 37° C., 5% CO2. The plate was turned upside down and observed under the microscope.
3) The solutions of different concentrations of the compounds to be tested were added to each well, and a control well (culture medium and MTS solution with cells but no drug) and a blank well (without cells, medium and MTS solution) were set, 3 to 5 repetition wells were set for each group. Incubation was performed at 37° C. for 48-72 hours.
4) 10 μL/well of MTS/PMS (20:1, Promega Corp) solution was added to each well containing 100 μL of culture medium, and then the plate was gently shaken. The plate was incubated at 37° C. for 2 to 4 hours.
5) M5 microplate reader (Molecular Device, USA) was used to measure the absorbance of the solution at 490 nm. […]

[2] = system: mouse model of BLM-induced lung injury; assay: Total number of cells and protein concentration in BALF; format: in vivo; details: mice; 30, 60, 90 mg/kg oral qd
Description: 1. The determination of the total number of cells in BALF. The collected BALF was centrifuged at 1000 rpm at 4° C. for 10 minutes, and 25× Cocktail was added to the supernatant and stored at −80° C. for protein concentration detection and subsequent cytokine determination. The cell pellet was resuspend in 50 μL of saline. The total number of cells in BALF was determined with a cell counting instrument.
2. Determination of protein concentration. In the experiment, the BCA protein concentration determination kit (Beyotime) was used to determine the concentration of total protein in BALF. The experimental steps are as follows:
a. 0.8 ml protein standard formulation solution was added to a tube of protein standard (20 mg BSA), dissolved and mixed thoroughly to prepare a protein standard solution at 25 mg/ml. After preparation, the protein standard solution can be used immediately and stored at −20° C.
b. An appropriate amount of 25 mg/ml of protein standard solution was taken and diluted to the target concentration of 0.5 mg/ml. Note that the protein sample and the standard should be diluted with the same solution, or the standard can be diluted with 0.9% NaCl or PBS. […]
d. The absorbance in the wavelength range of 540-595 nm was measured or a microplate reader was used to measure A562.
e. The protein concentration in the sample was calculated according to the sample volume used and standard curve.

[3] = system: pulmonary fibrosis induced by bleomycin in mice; assay: mRNA levels of fibrosis-related markers in lung tissue (qRT-PCR); format: in vivo, mouse; details: 60, 90 mg/kg
Description: About 30 mg of cryopreserved lung tissue was weighed and homogenized and lysed by adding 200 μL of Trizol (Takara, 9109 #). The fluid after the lysis in the well was collected by the RNA sterilization-grade pipette tip and transferred to the corresponding sterile EP tube. […] of chloroform was added, shaken vigorously for 30 sec, and centrifuged for 15 minutes in a centrifuge at 4° C. at 12000 rpm. The upper aqueous layer was transferred to a new EP tube, an equal volume of isopropanol was used to precipitate the RNA in the aqueous phase, and the tube was allowed to stand at −20° C. for more than 1 hr. And then the tube was centrifuged for 15 min at 4° C. at 12000 rpm, and the supernatant was discarded. 75% ethanol was added to wash the RNA pellet, and then the tube was centrifuged for 15 min at 4° C. at 12000 rpm, and the supernatant was discarded. The tube was placed at room temperature for 10-20 min to dry the RNA pellet. 25-200 μL of RNase-free water was added for dissolution and stored at −80° C.
PrimeScript™ RT Master Mix (Takara, RR036A) was selected for mRNA reverse transcription. Please refer to the instructions for the system. In short, 1 μg of mRNA was added to a 20 μL system, mixed and then kept at a constant temperature in a 37° C. water bath for 15 minutes, and then the enzyme was inactivated at 85° C. for 5 seconds. After centrifugation, double distilled water was used to dilute 10 times.
Q-PCR technology used 2×SYBR Green qPCR Master Mix (B21202, Biomake), and the reaction system could be prepared according to the instruction (10 μL of 2×SYBGreen, 8.8 μL of cDNA template, 1.2 μL of 5 μM primer Mix). The reaction conditions are: pre-denaturation at 95° C. for 5 min, denaturation at 95° C. for 30 sec, annealing at 60° C. for 30 sec, and extension at 72° C. for 30 sec, the number of reaction cycles is 40 cycles.
The experiment used qRT-PCR technology to determine the mRNA levels of fibrosis-related markers in lung tissue.
The experimental method was the same as that for the evaluation of the mRNA levels of inflammatory cytokines.

O=C(Nc1cccc(C(F)(F)F)c1)c1ccc(C2CC2)c(-c2ccc3nc(Nc4cnn(C5CC5)c4)ncc3c2)c1 [Compound S15, 4-cyclopropyl-3-(2-((1-cyclopropyl-1H-pyrazol-4-yl)amino)quinazolin-6-yl)-N-(3-(trifluoromethyl)phenyl)benzamide]
cytotoxic activity on MRC-5 [1]: almost no toxicity | protein concentration in BALF [2]: reduce the number of inflammatory cells and the concentration of related proteins in a dose-dependent manner | total number of inflammatory cells in BALF [2]: reduce the number of inflammatory cells and the concentration of related proteins in a dose-dependent manner | reduction of expression (mRNA) of Collagen1-α1 [3]: about 90% | reduction of expression (mRNA) of TGF-β1 [3]: about 90% | reduction of expression (mRNA) of α-SMA [3]: about 90%
